Among the test systems are SNB-75 CNS; COLO 205 colon; SF-295 CNS; SNB-19 CNS; SN12C renal; U251 CNS; LOX IMVI melanoma; CAKI-1 renal; SK-OV-3 ovarian.
Common to all, as to experiment: DTP human tumour cell line panel, 48 h

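Tested at 5 concentrations; 48 h exposure; 96-well plates; endpoints linearly interpolated, else capped at highest concentration. TGI is the concentration that stops growth completely.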

The TGI is the concentration giving total growth inhibition. Low values mean greater sensitivity of the cells, high ones lower sensitivity of the cells. For `CCCCCCCCCOC(=S)NC`, the TGI in the assay with SNB-75 CNS was 73.7 µM; in the assay on COLO 205 colon, 49.2 µM; with SF-295 CNS, 67.5 µM; in the assay on SNB-19 CNS it was greater than 100 µM; in the assay with SN12C renal, 36.9 µM; with U251 CNS, 31.5 µM. Also, the TGI in the assay on LOX IMVI melanoma is 35.5 µM; in the assay on CAKI-1 renal, 43.1 µM; in the assay with SK-OV-3 ovarian, 45.7 µM.

In the case of `CCCC(OCC)(OCC)OCC`, the TGI in the assay on SNB-75 CNS, in the assay with COLO 205 colon, with SF-295 CNS, in the assay on SNB-19 CNS, with SN12C renal and in the assay on U251 CNS was greater than 100 µM in each case. Besides, the TGI in the assay on LOX IMVI melanoma, in the assay with CAKI-1 renal and with SK-OV-3 ovarian was greater than 100 µM each time.

In the case of `c1cncc(C2c3[nH]c4ccccc4c3CCN2CCCN2CCCCC2)c1` (configuration not stated), the TGI in the assay on SNB-75 CNS, in the assay with COLO 205 colon, in the assay on SF-295 CNS, with SNB-19 CNS, in the assay with SN12C renal and in the assay with U251 CNS was greater than 100 µM each time. Further, the total growth inhibition concentration (TGI) with LOX IMVI melanoma, in the assay with CAKI-1 renal and in the assay with SK-OV-3 ovarian was greater than 100 µM each time.

Consider `CCOC(=O)C1Cc2c(ccc(OC)c2OC)C(=O)C1N` (configuration not stated), for which the TGI in the assay with SNB-75 CNS, in the assay with COLO 205 colon, in the assay with SF-295 CNS, in the assay on SNB-19 CNS, in the assay with SN12C renal and with U251 CNS was greater than 100 µM in each case. The TGI with LOX IMVI melanoma, with CAKI-1 renal and in the assay on SK-OV-3 ovarian was greater than 100 µM each time.

Regarding `Cc1cc(C)c(C(=O)O)c(N)c1O`, the TGI in the assay with SNB-75 CNS, in the assay with COLO 205 colon, in the assay on SF-295 CNS, with SNB-19 CNS, in the assay with SN12C renal and in the assay with U251 CNS was greater than 100 µM each time. Further, the TGI with LOX IMVI melanoma, in the assay on CAKI-1 renal and with SK-OV-3 ovarian was greater than 100 µM throughout.

As for `C/C(CC(=O)CCCC(=O)Nc1ccc(Cl)cc1Cl)=N/NC(=O)CC#N`, the TGI with SNB-75 CNS, in the assay with COLO 205 colon, in the assay with SF-295 CNS, with SNB-19 CNS, in the assay on SN12C renal and in the assay on U251 CNS was greater than 100 µM in each case. Also, the TGI in the assay with LOX IMVI melanoma, in the assay on CAKI-1 renal and in the assay on SK-OV-3 ovarian was greater than 100 µM in each case.

Take `COc1cccc(/C=C(/C(=O)O)c2cc(OC)c(OC)c(OC)c2)c1`: the TGI in the assay on SNB-75 CNS, with COLO 205 colon, in the assay on SF-295 CNS, with SNB-19 CNS, in the assay with SN12C renal and in the assay with U251 CNS was greater than 100 µM each time. Moreover, the TGI in the assay with LOX IMVI melanoma and in the assay on CAKI-1 renal was greater than 100 µM each time.

As for `Nn1c(CCCl)nc2c(Br)cc(Br)cc2c1=O`, the TGI with SNB-75 CNS was 91.5 µM; in the assay on COLO 205 colon, 54.1 µM; with SF-295 CNS, greater than 100 µM; in the assay with SNB-19 CNS, greater than 100 µM; with SN12C renal, greater than 84.2 µM; in the assay with U251 CNS, greater than 58 µM. Also, the results for the TGI in the assay on LOX IMVI melanoma, in the assay with CAKI-1 renal and with SK-OV-3 ovarian were 78.6 µM, greater than 93.2 µM and greater than 94.1 µM, respectively.

Take `CCOC(=O)/C(=C/c1ccc(OC)c(OC)c1)C(=O)c1ccccc1`: the TGI was 28.5 µM in the assay on SNB-75 CNS; 31.1 µM in the assay on COLO 205 colon; 46.9 µM with SF-295 CNS; 30.1 µM with SNB-19 CNS; 65 µM with U251 CNS; 31.8 µM in the assay with CAKI-1 renal. Also, in the assay on SK-OV-3 ovarian, the TGI was found to be 73.1 µM.

In the case of `OCCN1CCN(CCO)Cc2ccccc2OCCOc2ccccc2C1`, the TGI in the assay on SNB-75 CNS, with COLO 205 colon, in the assay on SNB-19 CNS, in the assay with SN12C renal, in the assay with U251 CNS and in the assay with LOX IMVI melanoma was greater than 100 µM throughout. For the same compound, the TGI in the assay with CAKI-1 renal and in the assay with SK-OV-3 ovarian was greater than 100 µM in each case.

On to `COc1cc(C(=O)C/C(CCC(=O)Nc2ccccc2[N+](=O)[O-])=N\NC(=O)C(N)=O)ccc1O`, for which the TGI with COLO 205 colon, in the assay with SF-295 CNS, with SNB-19 CNS, in the assay with U251 CNS, in the assay on LOX IMVI melanoma and in the assay with CAKI-1 renal was greater than 100 µM in each case. The compound also registered a TGI in the assay with SK-OV-3 ovarian greater than 100 µM.

For the compound `COC(=O)C1=CC(O)CCC1c1ccc(OC)cc1` (configuration not stated), the TGI in the assay with SNB-75 CNS, in the assay with COLO 205 colon, with SF-295 CNS, in the assay with SNB-19 CNS, with SN12C renal and in the assay with U251 CNS was greater than 100 µM in each case. The TGI in the assay with LOX IMVI melanoma, with CAKI-1 renal and in the assay with SK-OV-3 ovarian was greater than 100 µM throughout.

`CSc1nc(NC2OCC(OC(C)=O)C(OC(C)=O)C2OC(C)=O)c(N=CC=Nc2c(NC3OCC(OC(C)=O)C(OC(C)=O)C3OC(C)=O)nc(SC)n(C)c2=O)c(=O)n1C` (configuration not stated): the TGI in the assay with SNB-75 CNS, with COLO 205 colon, in the assay with SF-295 CNS, in the assay on SNB-19 CNS, in the assay with SN12C renal and in the assay with U251 CNS was greater than 100 µM throughout. Besides, the TGI in the assay on LOX IMVI melanoma and with SK-OV-3 ovarian was greater than 100 µM in each case.

With `C=C(C)C1CC=C(C(=O)O)CC1` (configuration not stated), the TGI in the assay with SNB-75 CNS is 3780 µM; in the assay with COLO 205 colon, 1620 µM; with SF-295 CNS, greater than 5000 µM; in the assay on SNB-19 CNS, 4330 µM; in the assay on SN12C renal it was greater than 5000 µM; in the assay with U251 CNS it was 2630 µM. For the same compound, the TGI was 3440 µM in the assay with LOX IMVI melanoma, 4080 µM with CAKI-1 renal and greater than 5000 µM in the assay on SK-OV-3 ovarian.

Regarding `CC1(C)CCC(=O)c2c(O)ccc(O)c21`, the TGI is 98.3 µM in the assay on SNB-75 CNS; greater than 100 µM in the assay on COLO 205 colon; greater than 100 µM with SF-295 CNS; greater than 100 µM with SNB-19 CNS; greater than 100 µM with SN12C renal; greater than 100 µM in the assay with U251 CNS. For the same compound, the TGI with CAKI-1 renal and in the assay on SK-OV-3 ovarian was greater than 100 µM throughout.

For the origin of these results see PubChem BioAssay (NCI).
